From US20200064357A1, “METHODS FOR DETERMINING AND MONITORING GASTROINTESTINAL INFLAMMATION” (Protagonist Therapeutics, Inc., priority 2016, published 2020) come the findings set out here.

Assay [1] deals with Sprague-Dawley rats. Nature of the assay: Biomarkers in colon of TNBS-induced acute colitis rats (Example E1). Type of assay: in vivo, rat. An excerpt: The effect of treatment with peptide inhibitors of IL23R on inflammatory markers associated with IL23 signaling was examined in a rat model of acute colitis. Acute colitis was induced in Sprague-Dawley rats by a single intra-rectal instillation of 2,4,6-Trinitrobenzenesulfonic acid (TNBS) followed by efficacy analysis at day seven. Pharmacodynamic (PD) biomarkers were examined using enzyme-linked immunosorbent assay (ELISA), quantitative reverse transcription polymerase chain reaction, or immunohistochemistry analysis of colon, feces, or serum samples obtained from colitic rats treated with Peptide 993, Peptide 1185, or Peptide 980.
Acute colitis was induced by providing 7-week-old female Sprague-Dawley rats with various dosages of 64 mg/kg or 48 mg/kg of TNBS in 50% ethanol (TNBS/ethanol) administered intrarectally at Day 0. Peptide inhibitors were administered orally two or three times a day at various dosages and were provided in drinking water at various dosages, for 8 days starting approximately 24 hours (Day −1) prior TNBS inoculation.
Levels of a number of inflammatory biomarkers were examined in the colons. The distal colon tissue samples, designated for protein expression analysis, were flash frozen after collection. For protein extraction, the samples were thawed, weighed and homogenized in the extraction buffer (PBS pH 7.2 supplemented with Protease Inhibitors, 3× volume:weight). The homogenates were centrifuged at 13 krpm at 4° C. for 15 minutes, a total of two times to remove the debris. The supernatants were saved in multiple aliquots in −80° C. and subsequently used for protein expression analysis on ELISA. The total protein in each sample was quantified using BCA assay. MPO, IL-10, IL-6, IL-17A and IL-22 biomarker protein expression in the distal colon samples was analyzed using commercially available rat ELISA kits.

Assay [2] concerns Sprague-Dawley rats. Nature of the assay: Biomarker gene expression in distal colon, TNBS rat colitis model, quantitative real time PCR (Example E3). Type of assay: in vivo. Conditions: 31 mg/kg/day, normalized to HPRT1, vs vehicle group. On the procedure: (§1) Animals from the sham group (without TNBS exposure), the vehicle group (exposed to TNBS and treated with vehicle only) and the group treated with Peptide 993 (exposed to TNBS and treated with Peptide 993 at 31 mg/kg/day) were subjected for gene expression and miroRNA analysis
For extraction of total RNA from the distal colons, tissue samples stored at −20° C. in the buffer RNAlater, were thawed and homogenized in RLTplus Buffer (Qiagen) at 20× volume:wt, then subsequently purified using the RNeasy Plus Mini Kit (Qiagen). The concentration of the total RNA was measured and the quality of the RNAs was verified on a gel. The total RNA was used in QuantiTect Reverse Transcription Kit (Qiagen) to obtain cDNA templates for the quantative real time PCR. The expression of the genes LCN2 (Lipocalin 2), S100A8 (a subunit of calprotectin) and CLDN8 (Claudin 8 of the claudin family of tight junction proteins) were measured using Taqman and TaqMan Fast Advanced Master Mix (Applied Biosystems). The threshold cycle number (Ct) values, that are indicative of abundance of template, were normalized using the endogenous control gene HPRT1. The Relative expression of each gene was calculated using the normalized Ct values. Statistical analysis of relative expression was performed using One-way ANOVA method (with Dunnett's multiple comparisons) to compare the variations Vs Group 2.
In general terms: Quantitative PCR measures a nucleic acid by following its amplification.

Assay [3] deals with Sprague-Dawley rats. Put plainly: miR-223-3p expression in distal colon and serum, TNBS rat colitis model (Example E3). Type of assay: in vivo. Conditions: 31 mg/kg/day, vs vehicle group. On the procedure:
as §1
For extraction of microRNA from distal colon homogenate, the RNeasy Plus Mini Kit and the RNeasy MinElute Cleanup Kit (Qiagen) were used. For extraction of microRNA from serum, miRNeasy Serum/Plasma Kit (Qiagen) was used. To verify uniformity of microRNA extraction, a synthetic microRNA cel-miR-39-3p, at a fixed concentration, was spiked into both distal colon homogenates and serum samples. The microRNAs purified from distal colon and serum was used in the Advanced miRNA cDNA Synthesis Kit (Applied Biosystems) to obtain cDNA templates for the quantative real time PCR. The expression of miR-223-3p, a microRNA known to negatively regulate CLDN8 gene expression, was measured using TaqMan Advanced miRNA assay (Applied Biosystems). The endogenous control miR-16-5p was used for normalization in the distal colon, and the endogenous control miR-24-3p was used for normalization in the serum. Relative expression of miR-223-3p was calculated using the normalized Ct values. […]

Assay [4] concerns Sprague-Dawley rats. Nature of the assay: Disease pathology in TNBS-induced rat colitis: colon weight/length, colonic score, histology (Example E4). Type of assay: in vivo. On the procedure:
In the first model, acute colitis was induced in Sprague-Dawley rats by a single intra-rectal instillation of TNBS followed by efficacy analysis at day seven. The animals were grouped into sham+vehicle (PO TID), TNBS+vehicle (PO TID), anti-IL23p19 antibody (4 mg/kg/day IP, Day −1 and Day 3), and Peptide 993 treatment at 9, 28, or 61 mg/kg/day (PO TID+in drinking water). Sham indicates animals not treated with TNBS.
Following treatment, weight and length were determined from entire colon; colonic score was evaluated as sum of adhesion (0-2), stricture (0-3), ulcer (0-5), and colon wall thickness (0-2); histology was evaluated by a pathologist as sum of mucosal/submucosal inflammation (0-5), transmural inflammation (0-5), erosion (0-5), and gland loss (0-5). Values shown as mean±SD (FIGS. 9A-9C). Statistical significance was assessed by One-way ANOVA with post-hoc Dunnett's vs. Vehicle control: **p≤0.01; ***p≤0.001; ****p≤0.0001; ns, not significant.

The mark [5] stands for this setting: protein by ELISA, vs vehicle treated controls, Peptide 993 65 mg/kg/day.
The mark [6] stands for this setting: protein by ELISA, vs vehicle treated controls, Peptide 993 65 mg/kg/day, Peptide 980 37 mg/kg/day.
[7] abbreviates: TNBS rats, day seven, 9, 28 or 61 mg/kg/day PO TID + in drinking water, vs vehicle.
The mark [8] stands for this setting: acute TNBS-induced rat colitis model, oral treatment.

As to `CC(=O)NC(CCCNC(=N)N)C(=O)NC1CCSCC(C(=O)NC(Cc2ccc(OCCN)cc2)C(=O)NC(Cc2ccc3ccccc3c2)C(=O)NC2(C(=O)NC(CCC(=O)O)C(=O)NC(CC(N)=O)C(=O)NC(CC(N)=O)C(N)=O)CCOCC2)NC(=O)C(CCC(N)=O)NC(=O)C(Cc2c[nH]c3ccccc23)NC(=O)C(C(C)O)NC(=O)C(CCC(N)=O)NC1=O` (stereo not shown) [Peptide 993, Ac-[(D)-Arg]-cyclo[[Abu]-QTWQC]-[Phe[4-(2-aminoethoxy)]]-[2-Nal]-[4-amino-4-carboxy-tetrahydropyran]-ENN-NH2], the “IL-1β gene expression level, distal colon” value with Sprague-Dawley rats [1] (data not shown, trend similar to the protein reduction) is “but not IL-1β”. For the same molecule, in the assay with Sprague-Dawley rats [1] (setting [5]), the “IL-1β level in colon” value was “reduced”, the “IL-6 level in colon” value is listed as “reduced” and the “IL-17A level in colon” value was “reduced”. In the assay with Sprague-Dawley rats [1] (setting [6]), the “IL-22 level in colon” value was “reduced” and the “MPO level in colon” value is “reduced”. For the same molecule, in the assay with Sprague-Dawley rats [2], the “S100A8 expression, distal colon” value is “not statistically significant, however there was a marked reduction in the average expression of the group”; the “relative expression of CLDN8, distal colon” value was “increase”; the “relative expression of LCN2, distal colon” value is reported as “significant reduction”. Also, in the assay on Sprague-Dawley rats [3] (normalized to miR-16-5p), the “miR-223-3p expression in the distal colon” value is listed as “not statistically significant, however there was a marked reduction in the average expression of the group”. Moreover, in the assay with Sprague-Dawley rats [3] (normalized to miR-24-3p), the “miR-223-3p expression in serum” value is recorded as “no apparent change”. In addition, in the assay on Sprague-Dawley rats [4] (setting [7]), the colon weight-to-length ratio result was “significant and dose-dependent reduction”; the “histopathological changes in the colon” value is given as “normalization”; the “macroscopic changes in the colon (colonic score)” value was “normalization”. For the same molecule, in the assay on Sprague-Dawley rats [4] (setting [8]), the “activity compared with neutralizing anti-IL-23p19 monoclonal antibody (4 mg/kg/day IP)” value is recorded as “comparable”; the disease parameters result is “significant and dose-dependent attenuation”.
